Reference: PubChem BioAssay (NCI)
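Step 1: Grow cells in 96-well plates. Step 2: Expose to compound for 48 hours at 5 concentrations. Step 3: Interpolate endpoints linearly; if unreached, use highest concentration. GI50 marks 50% less growth. Definition used: TGI = concentration required for complete inhibition of growth.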

Experiments:
Assay in all cases: growth of human tumour cells (NCI), 48 h
U251 CNS = system: U251 CNS
DLD-1 colon = system: DLD-1 colon
CAKI-1 renal = system: CAKI-1 renal
SNB-78 CNS = system: SNB-78 CNS
XF 498 CNS = system: XF 498 CNS
A498 renal = system: A498 renal
HCT-116 colon = system: HCT-116 colon
SK-MEL-28 melanoma = system: SK-MEL-28 melanoma
BT-549 breast = system: BT-549 breast
RXF 393 renal = system: RXF 393 renal
HCT-15 colon = system: HCT-15 colon
DMS 114 small cell lung = system: DMS 114 small cell lung

SMILES | TGI (U251 CNS) | TGI (DLD-1 colon) | TGI (CAKI-1 renal) | TGI (SNB-78 CNS) | TGI (XF 498 CNS) | TGI (A498 renal) | TGI (HCT-116 colon) | TGI (SK-MEL-28 melanoma) | TGI (BT-549 breast) | TGI (RXF 393 renal) | TGI (HCT-15 colon) | TGI (DMS 114 small cell lung) | GI50 (A498 renal)
COc1cc2c(cc1OC(=O)CC(C)O)C1C(OC2=O)C(OC(C)=O)C=C2CCN(C)[C@H]21 (stereo partly drawn) | 61.4 µM | > 100 µM | > 100 µM | 68.8 µM | 38.6 µM | 45.5 µM | > 100 µM | > 100 µM | – | – | – | – | –
CC1=C(N2CC2)C(=O)c2nc3n(c2C1=O)CCC3OC(=O)CCl (stereo not drawn) | 0.237 µM | 1.58 µM | 0.174 µM | 0.6 µM | 0.0954 µM | 0.13 µM | 0.383 µM | 0.141 µM | 0.0444 µM | 0.069 µM | 0.0825 µM | 0.512 µM | –
C[C@]12CCC3[C@@H](CC[C@@H]4c5nonc5CC[C@]34C)C1CCC(=O)N2 (stereo partly drawn) | > 100 µM | – | > 100 µM | > 100 µM | > 100 µM | > 100 µM | > 100 µM | > 100 µM | – | > 100 µM | > 100 µM | – | > 88.8 µM
CS(=O)(=O)Oc1cccc(/C=N/N=C(\N)NO)c1 | > 100 µM | > 100 µM | > 100 µM | > 100 µM | 32.5 µM | > 100 µM | > 100 µM | > 100 µM | – | > 100 µM | > 100 µM | > 100 µM | –
O=C1C=C(Br)c2c(-c3ccccc3)oc3cccc1c23 | > 100 µM | > 100 µM | > 100 µM | > 100 µM | – | > 100 µM | > 100 µM | > 100 µM | > 100 µM | > 83.9 µM | > 87.1 µM | > 100 µM | –
CCCCNCC(=O)O[C@]1(CC)C(=O)OCc2c1cc1n(c2=O)Cc2cc3ccccc3nc2-1 | 4.49 µM | > 100 µM | – | > 100 µM | 2.92 µM | 4.64 µM | 4.8 µM | > 93.8 µM | 8.36 µM | 2.15 µM | > 100 µM | 4.69 µM | –
O=C1C(=O)N(c2ccc(Cl)c(Cl)c2)C(=O)C(=O)C1c1nc2ccccc2s1 | > 100 µM | > 100 µM | > 100 µM | > 100 µM | – | > 100 µM | > 100 µM | > 100 µM | – | > 100 µM | > 100 µM | > 100 µM | –
Brc1cccc(C2SCc3nc4ccccc4n32)c1 (stereo not drawn) | 36.3 µM | 29.9 µM | > 100 µM | 99.2 µM | – | – | 29.4 µM | 47.9 µM | – | 26.4 µM | 35.9 µM | 35.2 µM | –
O=C(O)C1(P(=O)(O)O)CC1 | > 100 µM | > 100 µM | > 100 µM | > 100 µM | > 100 µM | > 100 µM | > 100 µM | > 100 µM | – | > 100 µM | > 100 µM | > 100 µM | –
c1ccc2c(C3NCCc4[nH]cnc43)cccc2c1 (stereo not drawn) | > 100 µM | > 100 µM | > 100 µM | > 100 µM | – | > 100 µM | > 100 µM | > 100 µM | – | > 100 µM | > 100 µM | > 100 µM | –
COc1ccc(NC(=O)C/C(C)=N\N=C(N)N)c([N+](=O)[O-])c1 | > 100 µM | > 100 µM | > 100 µM | > 100 µM | > 100 µM | > 100 µM | > 100 µM | > 100 µM | – | > 100 µM | > 100 µM | > 100 µM | –
C[Si](C)(C)OC1(C#N)C2C3CC4C2C(=O)C2C4C3C21 (stereo not drawn) | > 100 µM | > 100 µM | > 100 µM | > 100 µM | – | > 100 µM | > 100 µM | > 100 µM | – | > 100 µM | > 100 µM | > 100 µM | –
C=C1COC(/C=C(\C)CC/C=C(\C)CCl)C1 (stereo not drawn) | > 100 µM | > 100 µM | – | > 100 µM | > 100 µM | > 100 µM | > 100 µM | > 100 µM | – | > 100 µM | > 100 µM | > 100 µM | –
c1ccc(SC(CCCCC(Sc2ccccc2)Sc2ccccc2)Sc2ccccc2)cc1 | > 100 µM | > 100 µM | > 100 µM | > 100 µM | > 100 µM | > 100 µM | > 100 µM | > 100 µM | – | > 100 µM | > 100 µM | > 100 µM | –
CCCCCCCCCCCC(=O)OCCOCCOCCOCCOCCOCc1ccc(OC)cc1 | > 100 µM | > 100 µM | > 100 µM | > 100 µM | – | > 100 µM | > 100 µM | > 100 µM | – | > 100 µM | > 100 µM | > 100 µM | –
O=c1cc(-c2ccccc2)[nH]c2cc(O)ccc12 | 90.7 µM | 35.7 µM | 71.6 µM | > 100 µM | 50.4 µM | > 100 µM | 31.3 µM | > 100 µM | – | 37.5 µM | 30.6 µM | 34 µM | –
O=S(=O)(c1ccccc1)C(CN1CCCCC1)S(=O)(=O)c1ccccc1 | > 100 µM | > 100 µM | > 100 µM | – | > 100 µM | – | – | > 100 µM | – | > 100 µM | > 100 µM | – | –
